Measured values published in article PMC8096218, “Global RNA profiles show target selectivity and physiological effects of peptide-delivered antisense antibiotics” (Nucleic Acids Research, 2021).
Where two headings read alike, the source gives them in different places.

Legend:
SL1344 ΔphoP = test: MIC determination by broth microdilution; type: cell-based, Salmonella enterica serovar Typhimurium; settings: Table 3; ∼10^5 cfu/ml; three biological replicates
Method: (§1) MIC values were determined by broth microdilution according to standard protocols with a few modifications ([26]). An overnight bacterial cell culture, supplemented with the appropriate antibiotic when needed, was diluted 1:100 in fresh MHB and grown to OD600 0.5. The obtained culture was diluted to ∼10^5 cfu/ml or 10^6 cfu/ml, as indicated, in non-cation-adjusted MHB. Subsequently, 190 μl bacterial solution was dispensed into a 96-well plate (Thermo Fisher Scientific) along with 10 μl of a 20x PPNA, PNA or peptide working solution. Growth was monitored by measuring the OD at 600 nm every 20 min in a Synergy H1 plate reader (Biotek) with continuous double-orbital shaking (237 cpm) at 37°C for 24 h.
Fig. S4. Growth kinetics for MIC determ ination of 10^5 cfu/m l Salmonella wt (SL1344) and its isogenic ∆phoP m utant in the pres ence of var ying concentrations of the indicated conjugates. ( A) KFF-acpP, KFF-acpP-scram bled (scr) or KFF peptide in serial dilutions from 10 µM to 0.3 µM. ( B) RXR- acpP, RXR-acpP-scram bled (scr) or RXR peptide in seria l d ilutions f rom 10 µM to 0. 3 µM. ( C) T at-acpP, T at-acpP-scrambled (scr) or T at peptide in serial dilutions from 20 µM to 0.6 µM. D ata represent the average of three biological replicates, error bars indicate standard er ror of the m ean […]
(§2) (1 picture or pasted object on this page, not shown here)

[1] = tested on: wild-type Salmonella enterica serovar Typhimurium strain LT2; test: MIC determination by broth microdilution; type: cell-based; settings: Table 3; ∼10^5 cfu/ml; three biological replicates
Method: as §1
(§3) Fig. S5. Growth k inetics for MIC determ ination of 10^5 cfu/m l Salmonella wt (LT 2) and its isogenic
(§4) Pho PC m utant in the presen ce of var ying co ncentra tio n s of the in dicat ed co njugat e s. ( A) KFF-acpP,
(§5) KFF-acpP-scram bled (scr) or KFF peptide in s erial dilutions from 10 µM to 0.3 µM. ( B) RXR- acpP,
(§6) RXR- acpP-scram bled (scr) or RXR peptide in serial dilutions from 10 µM to 0.3 µ M. ( C) T at-acpP,
(§7) T at-acpP-scram bled (scr) or T at peptide in serial dilutions from 20 µM to 0.6 µM. Data represent
(§8) the average of three biological replicates, error bars indicate standard error of the m ean (SEM).
as §2

[2] = tested on: wild-type (wt) Salmonella enterica serovar Typhimurium strain SL1344; settings: non-cation-adjusted MHB, 37°C, 24 h
Method: as §1

[3] = tested on: Salmonella gene expression; test: RNA-seq transcriptomic response; type: cell-based, Salmonella enterica serovar Typhimurium; settings: 15 min
Method: Bacterial overnight cultures were diluted 1:100 in fresh MHB and grown to OD600 0.5. The obtained cultures were diluted to ∼10^6 cfu/ml in non-cation-adjusted MHB. Afterward, the bacterial solution was transferred into low-binding 5 ml tubes (LABsolute) along with the 20× PNA, peptide or PPNA solution. The final concentrations were 5 μM for KFF- and RXR-PNAs, and 10 μM for Tat-PNAs. Equimolar concentrations were used for the respective peptide control conditions. As a negative control, cells were treated with the respective volume of sterile nuclease-free water, which was used as solvent for the test compounds.
A time kinetic was performed for subsequent northern blot analysis (5, 10, 15 min), in which the reaction was stopped at the indicated time points by using RNAprotect Bacteria (Qiagen). For RNA-seq analyses, adding RNAprotect Bacteria at 15 min post treatment stopped the reactions with the indicated PPNA constructs or the respective peptide. After vortexing for 5 s, the samples were incubated at room temperature for 10 min, followed by cell pelleting at 4°C and 21 100 ×g for 20 min. Pellets were directly used for RNA isolation or stored at –20°C (<2 days) until further processing. RNA was purified from bacterial pellets using isolation protocol #3, as described above (0.5 mg/ml lysozyme, miRNeasy).
DNase treatment, cDNA library preparation and sequencing was conducted at Vertis (Munich, Germany). The RNA samples were first fragmented using ultrasound (4 pulses of 30 s each at 4°C). Then, an oligonucleotide adapter was ligated to the 3′ ends of the RNA molecules. First-strand cDNA synthesis was performed using M-MLV reverse transcriptase and the 3′ adapter as primer. The first-strand cDNA was purified and the 5′ Illumina TruSeq sequencing adapter was ligated to the 3′ end of the antisense cDNA. The resulting cDNA was PCR-amplified to about 10–20 ng/μl using a high fidelity DNA polymerase. The cDNA was purified using the Agencourt AMPure XP kit (Beckman Coulter Genomics) and was analyzed by capillary electrophoresis. For Illumina NextSeq sequencing, the samples were pooled in approximately equimolar amounts. The cDNA pool was sequenced on an Illumina NextSeq 500 system using 75 bp read length.
Reads from the RNA-Seq experiments were trimmed, filtered and mapped against the S. enterica subsp. enterica serovar Typhimurium SL1344 reference genome and the three plasmids pSLT_SL1344, pCol1B9_SL1344 (other name is p2), and pRSF1010_SL1344 ([19]). BBDuk was applied to trim bases with a Phred quality score of <10, and adapters were removed simultaneously. Reads were then mapped against the reference genome using BBMap (v38.84) and then assigned genomic features, including both coding sequences and annotated sRNAs ([19],[29]) using the featureCounts method of the Subread (2.0.1) package.
All downstream analysis was performed using packages from the R/Bioconductor project. The raw read counts were imported and analyzed with edgeR (v3.30.0). Each set of PNA-peptide conjugate experiments (i.e. experiments with KFF, RXR and Tat peptide) was analyzed simultaneously. Genes with less than 14.6 counts per million (CPM) in at least three libraries were filtered. This cutoff value was calculated using 10/L, where L is the library size of the smallest sample (minimum library size) in millions.
Raw read counts were normalized by trimmed mean of M values (TMM) normalization. Differential expression analysis was conducted using edgeR ([31]). Estimation of quasi-likelihood (QL) dispersions was then run with the […] function. Then contrasts between all samples versus the water controls were created as input for the glmQLTest function.
Genes with an absolute fold change >2 and an adjusted P-value (Benjamini–Hochberg, ([32])) <0.001 were considered differentially expressed.

LT2 PhoP^C = test: MIC determination by broth microdilution; type: cell-based, Salmonella enterica serovar Typhimurium; settings: Table 3; ∼10^5 cfu/ml; three biological replicates
Method: as §1, §3, §4, §5, §6, §7, §8, §2

[4] = RNA-seq, 5 μM, listed as RXR-acpP-scrambled
[5] = edgeR, versus water, 5 μM RXR-constructs, 10 μM Tat-constructs, triplicates, listed as PNARXRscr

## RXRRXRRXRRXRXB [RXR-acpP-scr, RXR peptide conjugated to scrambled control PNA]
SL1344 ΔphoP
  MIC in μM, SL1344 ΔphoP: 5 µM
[1]
  MIC in μM, LT2 wt: 10 µM
[2]; Table 1, ∼10^5 cfu/ml, lowest concentration with OD600 < 0.1
  MIC: >10 µM
[2]; Table 2, ∼10^6 cfu/ml, performed three times
  MIC: >10 µM
[3]; [4]
  number of downregulated sRNAs, apart from the induction of AmgR: three
  upregulation of mig-14: 1.92 fold
[3]; edgeR, versus water, 5 μM KFF-/RXR-constructs, 10 μM Tat-constructs, triplicates
  logFC yfiA: 1.5255
[3]; [5]
  logFC SL1344_0066A: 4.581
  logFC SL1344_2742: 3.203
  logFC mgtA: 1.779
[3]; edgeR, versus water, 5 μM, triplicates
  logFC yihO: 3.308
LT2 PhoP^C
  MIC in μM, LT2 PhoP^C: >10 µM
